The results in this text go back to patent US7405205B2, “Antitumor antisense sequences directed against R1 and R2 components of ribonucleotide reductase” (Lorus Therapeutics Inc., priority 1996, dated 2008).

Common to all, as to assay type: cell-based, human
Series [1] deals with T24 bladder cell carcinoma. The experiment in a line: Relative colony forming efficiency after antisense treatment (Table 13). To be noted: 0.2 μM antisense oligodeoxyribonucleotide phosphorothioate; T24 cells; averages of 2-8 determinations.
In series [2] the test system is HCT116 colon cell carcinoma. The series is described as above. The conditions noted are these: 0.2 μM antisense oligodeoxyribonucleotide phosphorothioate; HCT116 cells; averages of 2-8 determinations.
A further series has as its system A549 lung cell carcinoma. The series is described as above. To be noted: 0.2 μM antisense oligodeoxyribonucleotide phosphorothioate; A549 cells; averages of 2-8 determinations.
Series [3] relates to MIA PaCa-2 pancreatic cell carcinoma. Described as above. To be noted: 0.2 μM antisense oligodeoxyribonucleotide phosphorothioate; MIA PaCa-2 cells; averages of 2-8 determinations.
Series [4] relates to PC-3 prostrate cell adenocarcinoma. The description is as above. The conditions noted are these: 0.2 μM antisense oligodeoxyribonucleotide phosphorothioate; PC-3 cells; averages of 2-8 determinations.
The test system of series [5] is HepG2 hepatocellular carcinoma. The experiment in a line: Relative colony forming efficiency after antisense treatment (Table 13, FIG. 12). The conditions noted are these: 0.2 μM antisense oligodeoxyribonucleotide phosphorothioate; HepG2 cells; averages of 2-8 determinations.

Strand notation (5' to 3'): a small letter for the sugar, then the base; units joined by * are phosphorothioate-linked, units joined directly phosphodiester-linked; [ ] holds rarer units or linkages, { } end groups; capitals alone tell only the bases. d = 2'-deoxy (DNA)

With “GAAGTCAGCATCCAAGGTAA (DNA, all phosphorothioate, methylation of C not given here) [AS-II-1342-20]”, the “Reduced relative colony forming efficiency, expressed as % inhibition, T24” value in series [1] amounted to 59.76%. Also, in series [2], the “Reduced relative colony forming efficiency, expressed as % inhibition, HCT116” value amounted to 73.74%. Also, the “Reduced relative colony forming efficiency, expressed as % inhibition, A549” value in the series on A549 lung cell carcinoma is given as 65.67%. Moreover, in series [3], the “Reduced relative colony forming efficiency, expressed as % inhibition, MIA PaCa-2” value stood at 73.77%. Further, the “Reduced relative colony forming efficiency, expressed as % inhibition, PC-3” value in series [4] turned out to be 89.84%. In addition, the “Reduced relative colony forming efficiency, expressed as % inhibition, HepG2” value in series [5] was found to be 82.2%.

“TTGTGTACCAGGTGTTTGAA (DNA, all phosphorothioate, methylation of C not given here) [AS-II-1023-20]”: the “Reduced relative colony forming efficiency, expressed as % inhibition, T24” value in series [1] is recorded as 58.26%. For the same sequence, the “Reduced relative colony forming efficiency, expressed as % inhibition, A549” value in the series with A549 lung cell carcinoma worked out at 34.52%. For the same sequence, the “Reduced relative colony forming efficiency, expressed as % inhibition, MIA PaCa-2” value in series [3] is recorded as 42.82%. For the same sequence, the “Reduced relative colony forming efficiency, expressed as % inhibition, PC-3” value in series [4] stood at 87.63%.

Take “CGGCTCATCCTCCACGC (dC*dG*dG*dC*dT*dC*dA*dT*dC*dC*dT*dC*dC*dA*dC*dG*dC) [AS-II-391-17]”: in series [3], the “Reduced relative colony forming efficiency, expressed as % inhibition, MIA PaCa-2” value is recorded as 26.35%. For the same sequence, the “Reduced relative colony forming efficiency, expressed as % inhibition, PC-3” value in series [4] was determined as 93.25%. The “Reduced relative colony forming efficiency, expressed as % inhibition, HepG2” value in series [5] amounted to 60.64%.

Take “CAAATGGGTTCTCTACTCTG (DNA, all phosphorothioate, methylation of C not given here) [AS-II-1217-20]”: the “Reduced relative colony forming efficiency, expressed as % inhibition, T24” value in series [1] stood at 66.36%. Also, in series [2], the “Reduced relative colony forming efficiency, expressed as % inhibition, HCT116” value is listed as 68.68%. In the series with A549 lung cell carcinoma, the “Reduced relative colony forming efficiency, expressed as % inhibition, A549” value is recorded as 91.49%. In addition, the “Reduced relative colony forming efficiency, expressed as % inhibition, MIA PaCa-2” value in series [3] was 34.85%. In series [4], the “Reduced relative colony forming efficiency, expressed as % inhibition, PC-3” value came to 81.03%.

Turning to “AGCCTCTGCCTTCTTATACA (dA*dG*dC*dC*dT*dC*dT*dG*dC*dC*dT*dT*dC*dT*dT*dA*dT*dA*dC*dA; antisense) [AS-II-472-20]”, the “Reduced relative colony forming efficiency, expressed as % inhibition, T24” value in series [1] is 69.26%. In series [2], the “Reduced relative colony forming efficiency, expressed as % inhibition, HCT116” value was determined as 67.23%. In the series on A549 lung cell carcinoma, the “Reduced relative colony forming efficiency, expressed as % inhibition, A549” value was 96.99%. Also, the “Reduced relative colony forming efficiency, expressed as % inhibition, MIA PaCa-2” value in series [3] came to 97.13%. The “Reduced relative colony forming efficiency, expressed as % inhibition, PC-3” value in series [4] was 90.7%.

For “TCCTCGCGGTCTTGCTGGCC (dT*dC*dC*dT*dC*dG*dC*dG*dG*dT*dC*dT*dT*dG*dC*dT*dG*dG*dC*dC; antisense) [AS-II-323-20]”, in series [2], the “Reduced relative colony forming efficiency, expressed as % inhibition, HCT116” value was found to be 55.8%. Further, the “Reduced relative colony forming efficiency, expressed as % inhibition, A549” value in the series on A549 lung cell carcinoma is 91.24%. Further, the “Reduced relative colony forming efficiency, expressed as % inhibition, MIA PaCa-2” value in series [3] worked out at 97.55%. Also, the “Reduced relative colony forming efficiency, expressed as % inhibition, PC-3” value in series [4] amounted to 79.76%. The “Reduced relative colony forming efficiency, expressed as % inhibition, HepG2” value in series [5] amounted to 96.39%.

Turning to “GACGGCTGGGACAGGGTGCA (antisense dG*dA*dC*dG*dG*dC*dT*dG*dG*dG*dA*dC*dA*dG*dG*dG*dT*dG*dC*dA) [AS-II-134-20]”, the “Reduced relative colony forming efficiency, expressed as % inhibition, PC-3” value in series [4] was found to be 77.51%.

For “CCGTGGGCTCCTGGAAGATC (dC*dC*dG*dT*dG*dG*dG*dC*dT*dC*dC*dT*dG*dG*dA*dA*dG*dA*dT*dC; antisense) [AS-II-344-20]”, the “Reduced relative colony forming efficiency, expressed as % inhibition, PC-3” value in series [4] came out at 80.06%.

Consider “GAAACCAAATAAATCAAGCT (DNA, all phosphorothioate, methylation of C not given here) [AS-II-1790-20]”, for which, in series [4], the “Reduced relative colony forming efficiency, expressed as % inhibition, PC-3” value is 87.86%.

For the sequence “CCAGCACTATAAACAGACAG (DNA, all phosphorothioate, methylation of C not given here) [AS-II-1517-20]”, the “Reduced relative colony forming efficiency, expressed as % inhibition, PC-3” value in series [4] came out at 91.75%.
